Experimental data: US20210388031A1, “Designer Peptide Opsonins” (New Jersey Institute of Technology, priority 2020, published 2021)
pIC50: −log10 of the molar value. Read-outs that look alike come from different tables or passages of the source.

Tests used:
[1] = Solubility of nanofibers in aqueous phosphate buffer; type: physicochemical
Description: (i) SAPs are customizable solid phase peptide synthesized peptides. They are based on the canonical sequence K-(SL)6-K [SEQ.1] which aggregates via β-sheet interactions of the (SL) midblock to form fibers with polar lysine termini.^47,51 These 10-15 nm wide, 1-2 nm tall, 100s nm-μm long nanofibers are highly soluble >40 mg/mL (4w %) in aqueous phosphate buffer, FIG. 2 A-D.^57,58,60
Formed are fibers with polar glutamic acid termini. These ˜10 nm wide×1-2 nm tall, 100s nm-μm long nanofibers are highly soluble >40 mg/mL (4w %) in aqueous phosphate buffer, FIG. 3. […] Given straightforward SPPS synthesis with excellent (>90% crude purity), scalable manufacture (worldwide) of this peptide is assured.

[2] = rats IV
Anti-drug antibodies = conditions: in vivo
[3] = 37° C., LC/MS, FIG. 6D
A549 cell = A549 cell cytocompatibility; conditions: data not shown

**Q.** With `CC(=O)N[C@@H](CCCCN)C(=O)N[C@@H](CO)C(=O)N[C@@H](CC(C)C)C(=O)N[C@@H](CO)C(=O)N[C@@H](CC(C)C)C(=O)N[C@@H](CO)C(=O)N[C@@H](CC(C)C)C(=O)N[C@@H](CO)C(=O)N[C@@H](CC(C)C)C(=O)N[C@@H](CO)C(=O)N[C@@H](CC(C)C)C(=O)N[C@@H](CO)C(=O)N[C@@H](CC(C)C)C(=O)N[C@@H](CCCCN)C(N)=O` [K-(SL)6-K] as the compound, how does the solubility [1] read?
**A.** > 40 mg/mL

**Q.** For “Ac-ESLSLSLSLSLSLEGQYKTYIDKNNHYAEDERYK-NH2 (N-terminus and C-terminus assumed) [ESBP3]”, which “IC50 improved compared to SBP3 alone” value (SARS-CoV-2) is on record?
**A.** orders of magnitude improved

**Q.** And the clearance [2]?
**A.** 4 to 6 h

**Q.** What about the safety profile (daily >1 mM @ 1% blood volume (~200 μL) in rats IV) of the same compound?
**A.** excellent safety profile

**Q.** And the “anti-drug antibodies (ADA)” value (Anti-drug antibodies)?
**A.** none seen to date

**Q.** With “Ac-ESLSLSLSLSLSLEGSALEEGQLKTFLDKFMHELEDLLYQLAL-NH2 (N-terminus and C-terminus assumed) [ESBP2]” as the compound, how does the pIC50 (SARS-CoV-2) read?
**A.** > 8.00

**Q.** What about the “Plaque Reduction (10 μM, n-4)” value (SARS-CoV-2) of the same compound?
**A.** 74%

**Q.** And the “stability of drug formulation” value [3]?
**A.** over 10 days

**Q.** What about the IV clearance ([2]; FIG. 6C) of the same compound?
**A.** approximately 4 hrs

**Q.** And the “adverse reaction, 10 day repeat dosing” value (rats, 1% blood volume of 1 mM peptides, FIG. 6B)?
**A.** no adverse reaction

**Q.** What about the A549 cell cytocompatibility (A549 cell) of the same compound?
**A.** excellent

**Q.** With QYKTYIDKNNHYAEDERYK [SBP3] as the compound, how does the IC50 (SARS-CoV-2; binding domain alone, binds to the Spike protein) read?
**A.** μM-nM

**Q.** Which “Plaque Reduction (10 μM, n-4)” value (SARS-CoV-2) does the source give for SALEEQLKTFLDKFMHELEDLLYQLAL [SBP2] here?
**A.** 88%
